According to patent US20230399608A1, “PROCESS FOR ESTABLISHING A HUMAN TESTICULAR TISSUE CULTURE SYSTEM” (PATERNA BIOSCIENCES INC., priority 2021, published 2023):

Experiments:
[1] = tested on: proliferating germ cells in cultured testicular tissue; experiment: Inhibitor screen in cultured testicular tissue: EdU+ cells per unit area relative to best prior condition; type: cell-based, human; conditions: for EdU+/area (um2) to condition 2: ratio of EdU+ cells per unit area in test condition to condition 2, inhibitor at concentration listed in Table 12
From the text: In this study, the HIF-1a, apoptosis, inflammation, ROS, and angiogenesis pathways were primarily targeted to help maintain testicular somatic cell function and promote germ cell proliferation. The level of proliferation was quantified by calculating the number of Edu+ cells (EdU stains the cells that are in the process of replication) per unit area (in μm^2) in each condition and using the ratio of this parameter in the test condition to a previously identified best condition to quantify the effect of the tested condition.

[2] = tested on: testicular tissue comprising tubules and germ cells; experiment: Human testicular tissue culture: morphology and germ cell proliferation (EdU/DDX4); type: cell-based
From the text: Tissue preparation: Whole testes are removed from cadaveric organ donors by DonorConnect staff, which are picked up by Utah team and transported to research lab on ice. Testicular tissues are cut by 3-5 mm by dimeter in size using surgical scissors and tweezers.
Culture media preparation: the base media is αMEM+10% KSR. We first tested various small molecular inhibitors/ligands with different concentrations in the base media to culture testicular tissues.
Tissue culture: Place three pieces of testicular tissue into one well of a 6-well plate with 2 ml of media in each well. The tissue should be fully immersed in media. Place the plate at 34° C. in 5% CO2 in an incubator with culture media changed every other day.
Morphology examination: Measure the sizes of the cultured testicular tissues at different time points, including Day 1, Day 7, Day 14, and Day 21. And then fix the sample for H&E staining.
Germ cell proliferation examination: Add Edu (2 ul into each well) at different time points at Day 0, Day 6, Day 13, Day 20. Harvest the tissue 24 hours later for the germ cell proliferation test. Samples are washed three times by PBS and digested to isolated tubules by collagenase type IV at 37° C. Then wash 3 times by PBS to terminate the digestion and perform whole-mount staining of the tubules with Edu and DDX4/UTF1/SYCP3.

| Compound | EdU+/area (um2) to condition 2 [1] | also measured |
| --- | --- | --- |
| CC(C)=CCC[C@](C)(O[C@@H]1O[C@H](CO)[C@@H](O)[C@H](O)[C@H]1O)[C@H]1CC[C@]2(C)[C@@H]1[C@H](O)C[C@@H]1[C@@]3(C)CC[C@H](O)C(C)(C)[C@@H]3[C@@H](O[C@@H]3O[C@H](CO)[C@@H](O)[C@H](O)[C@H]3O[C@@H]3OC[C@@H](O)[C@H](O)[C@H]3O)C[C@]12C [Notoginsenoside R1] | 1.5 | – |
| C[C@@H]1[C@H](O)[C@@H](C)/C=C/C=C/CC/C=C/C=C/C=C/C=C/C(O[C@H]2O[C@H](C)[C@@H](O)[C@H](N)[C@@H]2O)CC2O[C@](O)(CC(O)C(O)CCC(O)CC(O)CC(O)CC(=O)O[C@H]1C)CC(O)C2C(=O)O (some centres unmarked) [Nystatin] | 2.1 | improving germ cell proliferation ([1]; added to first culture condition, FIG. 31 / Table 12): effective at improving germ cell proliferation |
| c1cc(CN2CCCNCCNCCCNCC2)ccc1CN1CCCNCCNCCCNCC1 [Plerixafor] | 1.4 | – |
| O=C(Nc1ccc([N+](=O)[O-])cc1O)Nc1ccccc1Br [SB225002] | 1.7 | – |
| C[C@]12CC[C@H]3[C@@H](CC[C@]4(O)C[C@@H](O)CC[C@]34C=O)[C@@]1(O)CC[C@@H]2C1=CC(=O)OC1 [Strophanthidin] | 2.2 | – |
| CS[C@H]1SC[C@H]2C(=O)N(C)[C@@H](C(C)C)C(=O)OC[C@@H](NC(=O)c3cnc4ccccc4n3)C(=O)N[C@@H](C)C(=O)N(C)[C@@H]1C(=O)N(C)[C@@H](C(C)C)C(=O)OC[C@@H](NC(=O)c1cnc3ccccc3n1)C(=O)N[C@@H](C)C(=O)N2C [echinomycin, Echinomycin] | – | germ cell survival ([2]; even two weeks after start of culture): helps germ cell survival; maintenance of testicular tissue structure ([2]; inhibitor added to base culture media): helps maintain testicular tissue structure |
